Experimental data taken from patent publication US20020058049A1, “Stable ophthalmic preparation” (priority 2000, published 2002).

Columns and labels:
[1] = Percent unoprostone isopropyl absorbed by bottle (PP vs LDPE) at three storage temperatures; type: physicochemical
Description: (§1) 0.15 wt % unoprostone isopropyl ester (a typical prostaglandin analogue) solution in an isotonic solution containing mannitol and edetate disodium is prepared. The solution also contains 0.015 wt % benzalkonium chloride as a preservative. The solution is placed in a polypropylene bottle and a polyethylene bottle, which bottles have 7.5 ml void volume, and 5 ml of the solution is placed in each bottle. The bottles have air-tight caps. The polypropylene bottle is molded from REXENE PP23M2 polypropylene and the polyethylene bottle is produced from ALATHON 2025 […] polyethylene (LDPE), which is available from DuPont. The bottles are placed in controlled environment at 40° C. and ambient humidity, and the concentration of unoprostone is periodically measured using HPLC.
Example 1 is repeated except that three different temperatures are used to store the samples. As put forth in Table 3, the percent unoprostone isopropyl absorbed by polypropylene is much lower than LDPE. This is particularly significant in that the lower absorption at higher temperatures enables the preparation of the present invention to meet current FDA stability requirements without refrigeration.

[2] = Long-term stability of unoprostone in polypropylene bottles at 25° C., 40% relative humidity; type: physicochemical; conditions: PP bottle
Description: as §1
The unoprostone solution is placed in the polypropylene bottles, as described in Example 1, and placed in storage at 25° C. with 40% relative humidity. The stability over time of unoprostone in the polypropylene bottles is measured.

% Unoprostone Absorbed ([1]; LDPE bottle, 12 mo. at 5° C.): 3.11% | % Unoprostone Absorbed ([1]; LDPE bottle, 12 mo. at 25° C.): 4.76% | % Unoprostone Absorbed ([1]; LDPE bottle, 12 mo. at 30° C.): 5.70% | % Unoprostone Absorbed ([1]; PP bottle, 12 mo. at 5° C.): 0.00% | % Unoprostone Absorbed ([1]; PP bottle, 12 mo. at 25° C.): 0.98% | % Unoprostone Absorbed ([1]; PP bottle, 12 mo. at 30° C.): 1.98% | % Unoprostone Isopropyl (Active) ([2]; 3 mo.): 101.3% | % Unoprostone Isopropyl (Active) ([2]; 6 mo.): 101.3% | % Unoprostone Isopropyl (Active) ([2]; 9 mo.): 101.3% | % Unoprostone Isopropyl (Active) ([2]; 18 mo.): 101.3% | % Unoprostone Isopropyl (Active) ([2]; Initial): 101.3% | degradation in concentration over time ([2]; over eighteen months): no measurable degradation
Compound: CCCCCCCC(=O)CC[C@@H]1[C@@H](C/C=C\CCCC(=O)OC(C)C)[C@@H](O)C[C@H]1O [Unoprostone, unoprostone isopropyl ester]
